According to the NIST ThermoML archive (doi:10.1021/je900596d):
± gives the expanded uncertainty stated by the source.

Details: 323.21 K, Fluid (supercritical or subcritical phases), Vibrating tube method

FC(F)=C(F)C(F)(F)F [hexafluoropropene]
Details	mass density [kg/m3]
17.7 kPa	0.97 ± 0.03
21.7 kPa	1.12 ± 0.03
25.1 kPa	1.38 ± 0.03
28.9 kPa	1.62 ± 0.03
32.8 kPa	1.83 ± 0.03
36.6 kPa	2.07 ± 0.03
40.3 kPa	2.22 ± 0.03
44.1 kPa	2.51 ± 0.03
47.8 kPa	2.68 ± 0.03
51.6 kPa	2.99 ± 0.03
55.2 kPa	3.08 ± 0.03
58.9 kPa	3.32 ± 0.03
62.6 kPa	3.51 ± 0.03
66.1 kPa	3.74 ± 0.03
69.7 kPa	3.92 ± 0.03
73.2 kPa	4.09 ± 0.03
76.7 kPa	4.26 ± 0.03
80.2 kPa	4.49 ± 0.03
83.7 kPa	4.72 ± 0.03
87.1 kPa	4.86 ± 0.03
90.6 kPa	5.07 ± 0.03
94.4 kPa	5.41 ± 0.03
98.1 kPa	5.54 ± 0.03
101.5 kPa	5.74 ± 0.03
105.2 kPa	6.02 ± 0.03
112.5 kPa	6.44 ± 0.03
116.2 kPa	6.58 ± 0.03
119.7 kPa	6.8 ± 0.03
123.2 kPa	7 ± 0.03
126.7 kPa	7.23 ± 0.03
130.2 kPa	7.42 ± 0.03
133.8 kPa	7.66 ± 0.03
137.6 kPa	7.92 ± 0.03
141.6 kPa	8.08 ± 0.03
145.4 kPa	8.32 ± 0.03
149.3 kPa	8.52 ± 0.04
153.2 kPa	8.77 ± 0.04
157.1 kPa	8.98 ± 0.04
160.9 kPa	9.22 ± 0.04
164.8 kPa	9.47 ± 0.04
168.8 kPa	9.71 ± 0.04
172.6 kPa	9.88 ± 0.04
176.5 kPa	10.13 ± 0.04
180.3 kPa	10.38 ± 0.04
184.3 kPa	10.62 ± 0.04
188.1 kPa	10.76 ± 0.04
195.8 kPa	11.28 ± 0.04
199.7 kPa	11.49 ± 0.04
203.6 kPa	11.86 ± 0.04
207.4 kPa	12.01 ± 0.04
211.1 kPa	12.24 ± 0.04
215 kPa	12.39 ± 0.04
218.8 kPa	12.6 ± 0.04
222.7 kPa	12.84 ± 0.04
226.4 kPa	13.16 ± 0.04
230.2 kPa	13.39 ± 0.04
233.8 kPa	13.5 ± 0.04
237.7 kPa	13.84 ± 0.04
241.4 kPa	14.08 ± 0.04
245.2 kPa	14.29 ± 0.04
249 kPa	14.46 ± 0.04
252.7 kPa	14.72 ± 0.04
260.3 kPa	15.25 ± 0.04
268.1 kPa	15.67 ± 0.04
272.2 kPa	15.98 ± 0.04
276.4 kPa	16.15 ± 0.04
280.6 kPa	16.35 ± 0.04
284.7 kPa	16.67 ± 0.04
288.7 kPa	16.87 ± 0.04
292.9 kPa	17.17 ± 0.04
297.1 kPa	17.47 ± 0.04
301.3 kPa	17.8 ± 0.04
305.4 kPa	17.98 ± 0.04
309.6 kPa	18.21 ± 0.04
313.9 kPa	18.45 ± 0.04
318 kPa	18.81 ± 0.04
322 kPa	19 ± 0.04
326.2 kPa	19.25 ± 0.04
330.3 kPa	19.52 ± 0.04
334.5 kPa	19.75 ± 0.04
338.7 kPa	20.05 ± 0.04
342.9 kPa	20.26 ± 0.04
347 kPa	20.58 ± 0.04
351.2 kPa	20.86 ± 0.04
355.4 kPa	21.13 ± 0.04
359.5 kPa	21.34 ± 0.04
363.6 kPa	21.63 ± 0.04
367.7 kPa	21.82 ± 0.04
371.9 kPa	22.12 ± 0.04
376 kPa	22.33 ± 0.04
380 kPa	22.69 ± 0.05
384.1 kPa	22.94 ± 0.05
388.2 kPa	23.18 ± 0.05
392.3 kPa	23.49 ± 0.05
396.4 kPa	23.69 ± 0.05
404.4 kPa	24.26 ± 0.05
408.5 kPa	24.53 ± 0.05
412.5 kPa	24.78 ± 0.05
416.5 kPa	25 ± 0.05
420.6 kPa	25.28 ± 0.05
424.6 kPa	25.54 ± 0.05
432.5 kPa	26.08 ± 0.05
436.6 kPa	26.31 ± 0.05
444.4 kPa	26.88 ± 0.05
448.4 kPa	27.13 ± 0.05
487.5 kPa	29.75 ± 0.05
499 kPa	30.39 ± 0.05
510.4 kPa	31.18 ± 0.05
521.8 kPa	31.98 ± 0.06
533.3 kPa	32.74 ± 0.06
544.4 kPa	33.53 ± 0.06
555.6 kPa	34.31 ± 0.06
566.8 kPa	35.09 ± 0.06
577.8 kPa	35.78 ± 0.06
588.8 kPa	36.55 ± 0.06
599.7 kPa	37.33 ± 0.06
610.7 kPa	38.21 ± 0.06
621.5 kPa	38.96 ± 0.06
632.3 kPa	39.67 ± 0.06
643 kPa	40.4 ± 0.07
653.8 kPa	41.25 ± 0.07
664.3 kPa	42.12 ± 0.07
675 kPa	42.78 ± 0.07
687.2 kPa	43.61 ± 0.07
697.7 kPa	44.47 ± 0.07
708.1 kPa	45.16 ± 0.07
721.9 kPa	46.18 ± 0.07
735.5 kPa	47.22 ± 0.07
747.6 kPa	48.18 ± 0.07
759.6 kPa	49.01 ± 0.07
769.7 kPa	49.86 ± 0.08
784.6 kPa	50.99 ± 0.08
799.5 kPa	52.13 ± 0.08
814.1 kPa	53.28 ± 0.08
